The text below walks through data of ChEMBL document CHEMBL1201862, “PubChem BioAssay data set” (2004).

Activity calls are given as the source filed them.

Assay [1] concerns the target T1, Microphthalmia-associated transcription factor (Homo sapiens, UniProt O75030).
T1 sequence (O75030 whole entry): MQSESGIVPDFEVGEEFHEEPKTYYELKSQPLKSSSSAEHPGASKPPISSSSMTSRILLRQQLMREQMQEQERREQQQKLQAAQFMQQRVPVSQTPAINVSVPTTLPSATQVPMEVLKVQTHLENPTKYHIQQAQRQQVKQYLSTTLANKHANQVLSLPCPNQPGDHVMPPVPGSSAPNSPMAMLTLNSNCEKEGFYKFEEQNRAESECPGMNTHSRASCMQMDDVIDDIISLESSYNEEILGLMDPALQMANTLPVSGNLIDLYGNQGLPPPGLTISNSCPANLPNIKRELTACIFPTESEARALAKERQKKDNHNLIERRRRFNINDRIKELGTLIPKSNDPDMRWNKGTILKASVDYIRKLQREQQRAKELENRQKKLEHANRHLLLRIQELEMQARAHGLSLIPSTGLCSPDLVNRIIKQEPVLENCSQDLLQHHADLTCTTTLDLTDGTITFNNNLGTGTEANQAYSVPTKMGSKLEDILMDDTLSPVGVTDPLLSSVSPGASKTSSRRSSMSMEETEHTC
The assay can be described thus: reducers of TRPM1 reporter luminescence, concentration series – cell-based, SK-MEL-5, cherry-picked, set 3, MITF inhibitor project, dose response (AID 493073).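 Also: SK-MEL-5 melanoma cells with luciferase driven by the MITF target TRPM1 promoter.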 The assay is classed as functional.

Assay [2] relates to A-375. The assay can be described thus: MITF: Counter assay: A375 proliferation Measured in Cell-Based System Using Plate Reader - 2084-03_Inhibitor_Dose_DryPowder_Activity. [Related pubchem assays (depositor defined):AID488944]. The assay is classed as functional. The following applies: Homo sapiens.
The target in assay [3] is T2, Replicative DNA helicase DnaB (Mycobacterium tuberculosis, UniProt P9WMR3).
T2 sequence (P9WMR3 whole entry): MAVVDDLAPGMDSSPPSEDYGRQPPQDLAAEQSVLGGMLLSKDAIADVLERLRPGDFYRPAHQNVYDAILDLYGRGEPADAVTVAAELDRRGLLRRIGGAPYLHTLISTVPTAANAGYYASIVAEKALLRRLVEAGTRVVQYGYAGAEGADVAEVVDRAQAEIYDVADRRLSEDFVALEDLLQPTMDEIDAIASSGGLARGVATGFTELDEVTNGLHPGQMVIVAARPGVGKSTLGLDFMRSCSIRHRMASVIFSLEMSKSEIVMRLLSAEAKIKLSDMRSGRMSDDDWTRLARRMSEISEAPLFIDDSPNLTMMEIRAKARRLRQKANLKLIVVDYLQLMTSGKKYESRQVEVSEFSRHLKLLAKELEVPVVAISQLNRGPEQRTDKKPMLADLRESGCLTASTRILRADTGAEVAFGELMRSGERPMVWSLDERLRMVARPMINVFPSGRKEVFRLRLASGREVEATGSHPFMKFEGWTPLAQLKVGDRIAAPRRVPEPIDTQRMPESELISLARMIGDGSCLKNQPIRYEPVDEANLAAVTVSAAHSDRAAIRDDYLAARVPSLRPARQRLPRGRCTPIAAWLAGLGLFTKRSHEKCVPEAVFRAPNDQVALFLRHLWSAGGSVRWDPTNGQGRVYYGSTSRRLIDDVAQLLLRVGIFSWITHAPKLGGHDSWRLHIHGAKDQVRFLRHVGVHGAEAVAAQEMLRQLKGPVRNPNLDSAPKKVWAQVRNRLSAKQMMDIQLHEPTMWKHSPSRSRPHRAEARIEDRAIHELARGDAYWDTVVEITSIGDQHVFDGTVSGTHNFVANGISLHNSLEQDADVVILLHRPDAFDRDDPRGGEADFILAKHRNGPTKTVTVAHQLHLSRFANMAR
The assay can be described thus: DnaB intein splicing inhibitors, dose response, biochemical, cell-free fluorescence (AID 449749). The assay is classed as functional.

A short description of assay [4]: cells. The assay is classed as functional, cell-based.
A short description of assay [5]: HEK-293T viability loss after treatment – luminescence, T-cell screen hits, cytotoxicity control for TCR NF-kB inhibitor project, dose response (AID 489026).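 Also: cells exposed to compound about 14 hours before the viability readout.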 The format is functional, cell-based.
For assay [6], the target named is T3, Heat shock factor protein 1 (Mus musculus, UniProt P38532).
T3 sequence (P38532 whole entry): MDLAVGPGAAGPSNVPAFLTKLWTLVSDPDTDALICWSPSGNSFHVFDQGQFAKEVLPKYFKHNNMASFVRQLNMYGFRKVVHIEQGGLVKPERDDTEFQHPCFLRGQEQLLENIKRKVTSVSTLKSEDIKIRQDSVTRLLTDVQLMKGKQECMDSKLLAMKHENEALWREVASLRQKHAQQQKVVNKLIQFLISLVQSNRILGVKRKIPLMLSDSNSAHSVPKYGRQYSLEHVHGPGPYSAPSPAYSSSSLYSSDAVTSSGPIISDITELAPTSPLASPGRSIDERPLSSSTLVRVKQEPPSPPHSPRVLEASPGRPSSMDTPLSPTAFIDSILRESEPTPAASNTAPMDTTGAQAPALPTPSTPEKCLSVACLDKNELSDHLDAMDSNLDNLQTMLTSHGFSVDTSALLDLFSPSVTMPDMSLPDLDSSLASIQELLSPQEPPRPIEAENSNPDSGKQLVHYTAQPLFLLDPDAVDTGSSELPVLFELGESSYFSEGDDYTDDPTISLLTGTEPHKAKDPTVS
Put plainly: enhancement of HSF1-driven luciferase signal – cell-based, NIH3T3, luminescence, dose retest, confirmation (AID 435004).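 Also: stress induced by proteasome inhibitor MG132 added 30 min after compound; luciferase reporter driven by HSF1 response element in NIH3T3 cells; actives raise luminescence as potentiators of the MG132 stress response.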 The format is functional.

Assay [7] is described as follows: non-specific 3'UTR reporter inhibition in Clone20-Shn3RL – cell-based, Renilla luciferase, cherry-picked, counter-screen for Shn3 inhibitor project, dose response (AID 624133). The format is functional. Background: Counterscreens check selectivity or assay interference.
For assay [8], the target named is Serine/threonine-protein kinase D3 (Homo sapiens, UniProt O94806). The format is functional.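 Also: determined within a kinase panel screen, with PRKCN as the panel member.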
Sequence of Serine/threonine-protein kinase D3 (O94806 whole entry): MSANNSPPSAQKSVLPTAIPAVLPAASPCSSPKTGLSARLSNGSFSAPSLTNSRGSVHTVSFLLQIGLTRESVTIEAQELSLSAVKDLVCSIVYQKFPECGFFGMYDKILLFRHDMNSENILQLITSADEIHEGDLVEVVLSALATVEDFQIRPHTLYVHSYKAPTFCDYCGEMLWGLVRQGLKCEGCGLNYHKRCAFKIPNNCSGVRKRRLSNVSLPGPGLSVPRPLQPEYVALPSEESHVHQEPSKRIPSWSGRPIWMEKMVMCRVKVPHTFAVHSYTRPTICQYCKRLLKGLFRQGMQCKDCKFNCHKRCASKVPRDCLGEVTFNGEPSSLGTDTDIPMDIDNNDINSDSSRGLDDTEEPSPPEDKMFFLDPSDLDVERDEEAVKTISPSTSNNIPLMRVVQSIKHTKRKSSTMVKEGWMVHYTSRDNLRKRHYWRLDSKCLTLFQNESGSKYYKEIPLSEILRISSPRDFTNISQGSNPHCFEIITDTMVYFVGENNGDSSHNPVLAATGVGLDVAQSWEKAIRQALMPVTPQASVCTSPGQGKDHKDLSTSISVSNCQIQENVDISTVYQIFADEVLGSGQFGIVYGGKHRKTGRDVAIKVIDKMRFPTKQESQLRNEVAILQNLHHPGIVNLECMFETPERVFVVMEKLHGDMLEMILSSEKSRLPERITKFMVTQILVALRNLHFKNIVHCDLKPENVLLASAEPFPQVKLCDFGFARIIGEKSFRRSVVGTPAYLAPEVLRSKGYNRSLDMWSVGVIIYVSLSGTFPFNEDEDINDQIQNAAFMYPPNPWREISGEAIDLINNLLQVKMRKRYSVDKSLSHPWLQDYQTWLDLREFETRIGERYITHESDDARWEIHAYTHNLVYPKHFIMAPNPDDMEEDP
Assay [9] concerns the target Serine/threonine-protein kinase PAK 4 (Homo sapiens, UniProt O96013). The format is functional.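 Also: value obtained within a kinome profiling panel in which PAK4 was one of the panel members.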
Assay [10] concerns the target MAP/microtubule affinity-regulating kinase 3 (Homo sapiens, UniProt P27448). The assay is classed as functional.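 Also: MARK3 affinity measured as one member of a kinome panel.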
The target in assay [11] is Glycogen synthase kinase-3 alpha (Homo sapiens, UniProt P49840). The assay is classed as functional.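 Also: GSK3A result taken from a broad kinome-wide kinase panel.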
The target in assay [12] is Receptor-type tyrosine-protein kinase FLT3 (Homo sapiens, UniProt P36888). The format is functional.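 Also: FLT3 was tested as one member of a kinome-wide kinase panel.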
The target of assay [13] is Cyclin-dependent kinase 5 (Homo sapiens, UniProt Q00535). The format is functional.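 Also: CDK5 measured as one member of a kinase profiling panel.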
Sequence of Cyclin-dependent kinase 5 (Q00535 whole entry): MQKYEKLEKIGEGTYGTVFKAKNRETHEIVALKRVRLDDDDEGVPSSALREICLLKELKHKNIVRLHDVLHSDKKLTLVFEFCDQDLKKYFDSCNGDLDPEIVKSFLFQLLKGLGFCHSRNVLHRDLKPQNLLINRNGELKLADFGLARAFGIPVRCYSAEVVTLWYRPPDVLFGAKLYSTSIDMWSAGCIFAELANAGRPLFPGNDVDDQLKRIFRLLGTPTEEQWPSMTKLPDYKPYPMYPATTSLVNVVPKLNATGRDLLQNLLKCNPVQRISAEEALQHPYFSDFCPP
The target of assay [14] is Leucine-rich repeat serine/threonine-protein kinase 2 (Homo sapiens, UniProt Q5S007). The format is functional.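 Also: value from a broad kinome-wide panel profiling study in which LRRK2 was one of the kinases tested.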
Assay [15] deals with Cyclin-dependent kinase 7 (Homo sapiens, UniProt P50613). The format is functional.
Sequence of Cyclin-dependent kinase 7 (P50613 whole entry): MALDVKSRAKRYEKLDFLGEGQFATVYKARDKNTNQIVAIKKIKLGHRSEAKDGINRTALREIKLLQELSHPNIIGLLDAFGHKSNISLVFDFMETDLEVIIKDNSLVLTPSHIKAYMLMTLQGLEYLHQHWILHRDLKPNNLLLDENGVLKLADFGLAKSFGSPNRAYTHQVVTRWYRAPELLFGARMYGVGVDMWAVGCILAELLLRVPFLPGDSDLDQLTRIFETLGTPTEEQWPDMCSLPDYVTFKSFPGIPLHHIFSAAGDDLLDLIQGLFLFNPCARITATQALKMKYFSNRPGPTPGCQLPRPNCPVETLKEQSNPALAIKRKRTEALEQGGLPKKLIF
Assay [16] addresses Dual specificity protein kinase CLK4 (Homo sapiens, UniProt Q9HAZ1). The format is functional.
Assay [17] deals with Dual specificity tyrosine-phosphorylation-regulated kinase 1A (Homo sapiens, UniProt Q13627). The format is functional.
In assay [18] the target is Leukocyte tyrosine kinase receptor (Homo sapiens, UniProt P29376). The assay can be described thus: Navigating the Kinome. Panel member name: LTK. The assay is classed as functional.
Sequence of Leukocyte tyrosine kinase receptor (P29376 whole entry): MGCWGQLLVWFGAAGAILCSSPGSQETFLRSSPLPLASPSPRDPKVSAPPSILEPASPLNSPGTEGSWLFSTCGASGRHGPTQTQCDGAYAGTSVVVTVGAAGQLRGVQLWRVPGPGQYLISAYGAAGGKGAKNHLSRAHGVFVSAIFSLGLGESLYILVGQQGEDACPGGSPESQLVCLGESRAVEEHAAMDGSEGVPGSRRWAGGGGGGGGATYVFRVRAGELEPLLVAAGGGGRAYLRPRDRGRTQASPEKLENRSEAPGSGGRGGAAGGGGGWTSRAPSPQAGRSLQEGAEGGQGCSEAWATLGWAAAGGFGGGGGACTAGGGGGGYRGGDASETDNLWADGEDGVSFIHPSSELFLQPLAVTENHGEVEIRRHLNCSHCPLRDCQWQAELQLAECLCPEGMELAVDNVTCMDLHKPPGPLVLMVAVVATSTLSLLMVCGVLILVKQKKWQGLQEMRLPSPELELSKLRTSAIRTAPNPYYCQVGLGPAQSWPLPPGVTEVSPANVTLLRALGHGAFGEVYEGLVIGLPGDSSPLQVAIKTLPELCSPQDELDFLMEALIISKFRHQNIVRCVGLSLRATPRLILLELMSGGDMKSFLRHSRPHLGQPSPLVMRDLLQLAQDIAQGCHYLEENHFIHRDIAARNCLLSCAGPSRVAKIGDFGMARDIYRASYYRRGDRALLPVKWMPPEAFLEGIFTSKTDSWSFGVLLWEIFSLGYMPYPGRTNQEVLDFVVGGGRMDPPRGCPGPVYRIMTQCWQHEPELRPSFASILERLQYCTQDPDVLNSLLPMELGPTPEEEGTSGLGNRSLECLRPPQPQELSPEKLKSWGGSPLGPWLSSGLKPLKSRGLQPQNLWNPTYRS
The target of assay [19] is Mitogen-activated protein kinase 14 (Homo sapiens, UniProt Q16539). The assay is classed as functional.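 Also: part of a kinome-wide panel, MAPK14 entry.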
Sequence of Mitogen-activated protein kinase 14 (Q16539 whole entry): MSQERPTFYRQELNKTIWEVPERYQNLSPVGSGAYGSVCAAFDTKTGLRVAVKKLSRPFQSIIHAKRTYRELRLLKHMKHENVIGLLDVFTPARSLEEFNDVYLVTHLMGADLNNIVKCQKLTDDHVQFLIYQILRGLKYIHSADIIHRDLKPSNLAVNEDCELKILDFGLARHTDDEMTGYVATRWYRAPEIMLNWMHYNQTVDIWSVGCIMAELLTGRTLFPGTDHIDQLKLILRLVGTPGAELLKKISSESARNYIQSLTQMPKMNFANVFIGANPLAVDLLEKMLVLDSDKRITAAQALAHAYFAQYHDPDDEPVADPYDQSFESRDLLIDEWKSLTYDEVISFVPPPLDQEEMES

Sequence of Dual specificity protein kinase CLK4 (Q9HAZ1 whole entry): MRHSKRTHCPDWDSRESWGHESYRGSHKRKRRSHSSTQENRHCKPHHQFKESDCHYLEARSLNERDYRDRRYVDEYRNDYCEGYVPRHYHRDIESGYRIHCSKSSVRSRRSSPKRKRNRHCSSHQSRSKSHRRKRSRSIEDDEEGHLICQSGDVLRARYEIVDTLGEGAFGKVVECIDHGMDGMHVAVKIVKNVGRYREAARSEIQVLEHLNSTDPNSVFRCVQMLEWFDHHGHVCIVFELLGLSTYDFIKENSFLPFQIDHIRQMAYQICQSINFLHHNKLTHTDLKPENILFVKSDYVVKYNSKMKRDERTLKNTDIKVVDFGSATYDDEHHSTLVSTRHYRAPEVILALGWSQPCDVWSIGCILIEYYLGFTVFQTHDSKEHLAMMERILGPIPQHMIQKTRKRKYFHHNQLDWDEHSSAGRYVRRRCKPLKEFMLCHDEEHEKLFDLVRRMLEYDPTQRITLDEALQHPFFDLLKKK
Sequence of MAP/microtubule affinity-regulating kinase 3 (P27448 whole entry): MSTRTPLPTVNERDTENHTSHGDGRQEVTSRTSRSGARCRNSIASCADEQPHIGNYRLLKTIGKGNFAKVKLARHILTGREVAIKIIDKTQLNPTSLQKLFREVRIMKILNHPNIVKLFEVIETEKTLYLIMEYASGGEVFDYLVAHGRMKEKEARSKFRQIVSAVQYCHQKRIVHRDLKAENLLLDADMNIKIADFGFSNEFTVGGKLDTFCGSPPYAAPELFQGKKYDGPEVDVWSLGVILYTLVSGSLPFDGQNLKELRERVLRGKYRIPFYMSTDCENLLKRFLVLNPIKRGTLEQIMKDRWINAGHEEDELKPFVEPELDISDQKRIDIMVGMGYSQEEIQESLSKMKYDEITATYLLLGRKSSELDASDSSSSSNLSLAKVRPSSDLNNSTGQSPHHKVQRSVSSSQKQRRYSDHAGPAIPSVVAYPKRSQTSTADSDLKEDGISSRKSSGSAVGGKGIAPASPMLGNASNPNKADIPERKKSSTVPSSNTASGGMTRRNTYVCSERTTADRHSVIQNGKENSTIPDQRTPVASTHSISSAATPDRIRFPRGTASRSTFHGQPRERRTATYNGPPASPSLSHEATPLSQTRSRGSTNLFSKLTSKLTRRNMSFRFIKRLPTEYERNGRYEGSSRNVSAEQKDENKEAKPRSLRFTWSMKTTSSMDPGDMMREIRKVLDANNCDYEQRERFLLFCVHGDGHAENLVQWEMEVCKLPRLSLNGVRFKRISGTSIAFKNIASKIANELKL
Sequence of Serine/threonine-protein kinase PAK 4 (O96013 whole entry): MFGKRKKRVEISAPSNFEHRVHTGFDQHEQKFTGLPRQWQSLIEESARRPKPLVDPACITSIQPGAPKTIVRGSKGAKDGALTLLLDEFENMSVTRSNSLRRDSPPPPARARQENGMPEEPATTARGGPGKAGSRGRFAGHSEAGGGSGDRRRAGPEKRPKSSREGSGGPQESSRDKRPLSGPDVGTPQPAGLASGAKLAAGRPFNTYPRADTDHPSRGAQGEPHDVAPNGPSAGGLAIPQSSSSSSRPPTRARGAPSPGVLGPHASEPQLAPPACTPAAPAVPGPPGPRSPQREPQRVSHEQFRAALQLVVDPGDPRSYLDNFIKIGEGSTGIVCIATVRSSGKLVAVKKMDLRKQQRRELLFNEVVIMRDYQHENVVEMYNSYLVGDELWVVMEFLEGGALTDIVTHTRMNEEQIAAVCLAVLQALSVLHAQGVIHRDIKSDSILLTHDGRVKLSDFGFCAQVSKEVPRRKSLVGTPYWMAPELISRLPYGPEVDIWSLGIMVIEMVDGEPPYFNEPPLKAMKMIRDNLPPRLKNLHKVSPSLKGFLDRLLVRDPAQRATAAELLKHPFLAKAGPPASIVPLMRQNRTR

For `CCc1cc[n+](C2=C([N-]S(=O)(=O)c3cccs3)C(=O)c3ccccc3C2=O)cc1`, the AC50 in [1] is 1.15 µM (active); in assay [2], 35.4 µM (active).

Take `O=C(NC1=C(NC2CCS(=O)(=O)C2)C(=O)c2ccccc2C1=O)c1ccccc1` (centres undefined): in assay [3], the concentration at half-maximal activity (AC50) was 0.816 µM (active).

As to `CCCC(=O)NC(c1ccc(N(C)C)cc1)c1ccc2cccnc2c1O` (centres undefined), the EC50 was 4.76 µM (active) in assay [4] and > 260 µM (inactive) in assay [6]. Also, the IC50 in [5] is > 80 µM (inactive). Moreover, the concentration at half-maximal activity (AC50) in assay [7] is 0.745 µM (active).

On to `O=C1NC(=O)C(c2c[nH]c3ccccc23)=C1c1nc(N2CCNCC2)nc2ccccc12`, for which the inhibition constant Ki was 1.58 µM (active) in assay [8]; 2 µM (active) in assay [9]; 0.398 µM (active) in assay [10]; 0.0398 µM (active) in assay [11]; > 3.16 µM (inactive) in [12]; 0.794 µM (active) in assay [13]. Moreover, the inhibition constant Ki is 0.398 µM (active) in assay [14]; 1.26 µM (active) in assay [15]; > 1.58 µM (inactive) in assay [16]; > 2 µM (inactive) in [17]; 0.794 µM (active) in assay [18]; > 3.98 µM (inactive) in assay [19].

The AC50 is the midpoint of the concentration-response curve, whichever way the signal moves. The term EC50 denotes the concentration needed to bring the measured effect to its halfway point. For orientation: IC50 means the concentration at which inhibition is half-maximal. As usually defined, the Ki is a dissociation constant, usually derived from enzyme kinetics or from competition with a known ligand.
